Assay results from PubChem BioAssay (NCI).
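Test compounds were applied to cells in 96-well plates for 48 hours at 5 doses. GI50 is the concentration that inhibits growth by half. TGI: concentration producing complete growth inhibition.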

What was measured:
Experiment in all cases: NCI-60 cell line screen, 48 h
HT29 colon = test system: HT29 colon
HOP-62 NSCLC = test system: HOP-62 NSCLC
ACHN renal = test system: ACHN renal
M14 melanoma = test system: M14 melanoma
SK-OV-3 ovarian = test system: SK-OV-3 ovarian
HL-60(TB) leukemia = test system: HL-60(TB) leukemia
MALME-3M melanoma = test system: MALME-3M melanoma
UO-31 renal = test system: UO-31 renal
OVCAR-4 ovarian = test system: OVCAR-4 ovarian
SNB-19 CNS = test system: SNB-19 CNS
A549 NSCLC = test system: A549 NSCLC
PC-3 prostate = test system: PC-3 prostate
HCT-116 colon = test system: HCT-116 colon
HCT-15 colon = test system: HCT-15 colon
COLO 205 colon = test system: COLO 205 colon
MDA-MB-435 = test system: MDA-MB-435
TK-10 renal = test system: TK-10 renal
MOLT-4 leukemia = test system: MOLT-4 leukemia
SK-MEL-5 melanoma = test system: SK-MEL-5 melanoma
SF-295 CNS = test system: SF-295 CNS
NCI-H522 lung = test system: NCI-H522 lung
KM12 colon = test system: KM12 colon
SW-620 colon = test system: SW-620 colon
SK-MEL-2 melanoma = test system: SK-MEL-2 melanoma
MDA-MB-231 breast = test system: MDA-MB-231 breast
NCI-H460 lung = test system: NCI-H460 lung
HOP-92 NSCLC = test system: HOP-92 NSCLC
CAKI-1 renal = test system: CAKI-1 renal
U251 CNS = test system: U251 CNS
T-47D breast = test system: T-47D breast
RXF 393 renal = test system: RXF 393 renal
SK-MEL-28 melanoma = test system: SK-MEL-28 melanoma
SR leukemia = test system: SR leukemia
SNB-75 CNS = test system: SNB-75 CNS
OVCAR-5 ovarian = test system: OVCAR-5 ovarian
NCI/ADR-RES ovarian = test system: NCI/ADR-RES ovarian
OVCAR-8 ovarian = test system: OVCAR-8 ovarian
NCI-H23 lung = test system: NCI-H23 lung
UACC-62 melanoma = test system: UACC-62 melanoma
IGROV1 ovarian = test system: IGROV1 ovarian
BT-549 breast = test system: BT-549 breast
786-0 renal = test system: 786-0 renal
HS 578T breast = test system: HS 578T breast
A498 renal = test system: A498 renal
DU-145 prostate = test system: DU-145 prostate
OVCAR-3 ovarian = test system: OVCAR-3 ovarian
K-562 leukemia = test system: K-562 leukemia
HCC-2998 colon = test system: HCC-2998 colon
SF-268 CNS = test system: SF-268 CNS
SF-539 CNS = test system: SF-539 CNS
MCF7 breast = test system: MCF7 breast
SN12C renal = test system: SN12C renal
RPMI-8226 leukemia = test system: RPMI-8226 leukemia
CCRF-CEM leukemia = test system: CCRF-CEM leukemia
UACC-257 melanoma = test system: UACC-257 melanoma
NCI-H226 lung = test system: NCI-H226 lung
LOX IMVI melanoma = test system: LOX IMVI melanoma

## COc1cccc(C2=C(c3cn(C)c4ccc(Cl)cc34)C(=O)NC2=O)c1
HT29 colon
  GI50: 4.14 µM
  TGI: > 24.1 µM
HOP-62 NSCLC
  GI50: 7.22 µM
  TGI: 21.4 µM
ACHN renal
  GI50: 6.65 µM
  TGI: > 19.6 µM
M14 melanoma
  GI50: 10.3 µM
  TGI: > 25 µM
SK-OV-3 ovarian
  GI50: 7.29 µM
  TGI: > 22 µM
HL-60(TB) leukemia
  GI50: 6.84 µM
  TGI: 14.6 µM
MALME-3M melanoma
  GI50: 13.9 µM
  TGI: > 20 µM
UO-31 renal
  GI50: 5.07 µM
  TGI: > 17.4 µM
OVCAR-4 ovarian
  GI50: 6.96 µM
  TGI: > 25 µM
SNB-19 CNS
  GI50: 13.4 µM
  TGI: > 25 µM
A549 NSCLC
  GI50: 6.84 µM
  TGI: > 25 µM
PC-3 prostate
  GI50: 6.16 µM
  TGI: > 19.6 µM
HCT-116 colon
  GI50: 3.8 µM
  TGI: > 13.7 µM
HCT-15 colon
  GI50: 6.4 µM
  TGI: > 25 µM
COLO 205 colon
  GI50: 3.92 µM
  TGI: 8.57 µM
MDA-MB-435
  GI50: 6.48 µM
  TGI: > 16.4 µM
TK-10 renal
  GI50: 10.4 µM
  TGI: > 23.8 µM
MOLT-4 leukemia
  GI50: 5.14 µM
  TGI: > 18.8 µM
SK-MEL-5 melanoma
  GI50: 3.63 µM
  TGI: 8.35 µM
SF-295 CNS
  GI50: 5.28 µM
  TGI: > 15.1 µM
NCI-H522 lung
  GI50: 5.48 µM
  TGI: > 17.9 µM
KM12 colon
  GI50: 4.95 µM
  TGI: 11.4 µM
SW-620 colon
  GI50: 8.79 µM
  TGI: > 25 µM
SK-MEL-2 melanoma
  GI50: 7.24 µM
  TGI: > 18 µM
MDA-MB-231 breast
  GI50: 8.3 µM
  TGI: > 20.6 µM
NCI-H460 lung
  GI50: 7.57 µM
  TGI: > 19.1 µM
HOP-92 NSCLC
  GI50: > 25 µM
  TGI: > 25 µM
CAKI-1 renal
  GI50: 4.87 µM
  TGI: 16.8 µM
U251 CNS
  GI50: 5.94 µM
  TGI: > 16.8 µM
T-47D breast
  GI50: 4.19 µM
  TGI: 17.4 µM
RXF 393 renal
  GI50: 3.66 µM
  TGI: 8.33 µM
SK-MEL-28 melanoma
  GI50: 7.87 µM
  TGI: > 20.5 µM
SR leukemia
  GI50: 5.77 µM
  TGI: > 18.6 µM
SNB-75 CNS
  GI50: 3.1 µM
  TGI: > 25 µM
OVCAR-5 ovarian
  GI50: 15.3 µM
  TGI: > 25 µM
NCI/ADR-RES ovarian
  GI50: 6.13 µM
  TGI: 19.8 µM
OVCAR-8 ovarian
  GI50: 6.61 µM
  TGI: > 20.3 µM
NCI-H23 lung
  GI50: 7.15 µM
  TGI: > 19.1 µM
UACC-62 melanoma
  GI50: 5.67 µM
  TGI: 12.8 µM
IGROV1 ovarian
  GI50: 7.62 µM
  TGI: > 17.5 µM
BT-549 breast
  GI50: 7.01 µM
  TGI: > 19 µM
786-0 renal
  GI50: 6.5 µM
  TGI: > 18.9 µM
HS 578T breast
  GI50: 6.76 µM
  TGI: > 25 µM
A498 renal
  GI50: 4.03 µM
  TGI: 12.5 µM
DU-145 prostate
  GI50: 10.9 µM
  TGI: > 22.1 µM
OVCAR-3 ovarian
  GI50: 7.47 µM
  TGI: > 17.2 µM
K-562 leukemia
  GI50: 6.54 µM
  TGI: > 19.8 µM
HCC-2998 colon
  GI50: 9.02 µM
  TGI: > 23 µM
SF-268 CNS
  GI50: 11.5 µM
  TGI: > 25 µM
SF-539 CNS
  GI50: 6.06 µM
  TGI: > 15.9 µM
MCF7 breast
  GI50: 2.85 µM
  TGI: > 25 µM
SN12C renal
  GI50: 4.96 µM
  TGI: 14.2 µM
RPMI-8226 leukemia
  GI50: 5.9 µM
  TGI: > 20.4 µM
CCRF-CEM leukemia
  GI50: 4.39 µM
  TGI: 15.7 µM
UACC-257 melanoma
  GI50: 9.86 µM
  TGI: > 21.5 µM
NCI-H226 lung
  GI50: 5.17 µM
  TGI: 19.1 µM
LOX IMVI melanoma
  GI50: 4.92 µM
  TGI: > 16.1 µM

## O=C(Nc1ccc2[nH]c3ccccc3c2c1)c1ccccc1Cl
HT29 colon
  GI50: 3.78 µM
  TGI: > 100 µM
HOP-62 NSCLC
  GI50: 59.4 µM
  TGI: > 100 µM
ACHN renal
  GI50: 4.98 µM
  TGI: > 100 µM
M14 melanoma
  GI50: 3.81 µM
  TGI: > 100 µM
SK-OV-3 ovarian
  GI50: 8.46 µM
  TGI: > 100 µM
HL-60(TB) leukemia
  GI50: 3.07 µM
  TGI: > 100 µM
MALME-3M melanoma
  GI50: 4.64 µM
  TGI: > 100 µM
UO-31 renal
  GI50: 5.2 µM
  TGI: > 100 µM
OVCAR-4 ovarian
  GI50: 6.83 µM
  TGI: > 100 µM
SNB-19 CNS
  GI50: 8.16 µM
  TGI: > 100 µM
A549 NSCLC
  GI50: 4.32 µM
  TGI: > 100 µM
PC-3 prostate
  GI50: 3.31 µM
  TGI: > 100 µM
HCT-116 colon
  GI50: 4.86 µM
  TGI: > 100 µM
HCT-15 colon
  GI50: 2.95 µM
  TGI: > 100 µM
COLO 205 colon
  GI50: 3.5 µM
  TGI: > 100 µM
MDA-MB-435
  GI50: 0.969 µM
  TGI: > 100 µM
TK-10 renal
  GI50: 7.25 µM
  TGI: > 100 µM
MOLT-4 leukemia
  GI50: 5.86 µM
  TGI: > 100 µM
SK-MEL-5 melanoma
  GI50: 2.88 µM
  TGI: > 100 µM
SF-295 CNS
  GI50: 3.63 µM
  TGI: > 100 µM
NCI-H522 lung
  GI50: 2.92 µM
  TGI: 9.66 µM
KM12 colon
  GI50: 2.32 µM
  TGI: 11.6 µM
SW-620 colon
  GI50: 3.91 µM
  TGI: > 100 µM
SK-MEL-2 melanoma
  GI50: 5.35 µM
  TGI: 74.8 µM
MDA-MB-231 breast
  GI50: 2.96 µM
  TGI: 20.4 µM
NCI-H460 lung
  GI50: 3.75 µM
  TGI: > 100 µM
HOP-92 NSCLC
  GI50: 2.84 µM
  TGI: > 100 µM
CAKI-1 renal
  GI50: 3.47 µM
  TGI: > 100 µM
U251 CNS
  GI50: 4.62 µM
  TGI: > 100 µM
T-47D breast
  GI50: 8.21 µM
  TGI: > 100 µM
RXF 393 renal
  GI50: 2.49 µM
  TGI: 8.99 µM
SK-MEL-28 melanoma
  GI50: 5.95 µM
  TGI: > 100 µM
SR leukemia
  GI50: 2.7 µM
  TGI: > 100 µM
SNB-75 CNS
  GI50: 2.8 µM
  TGI: 24.6 µM
OVCAR-5 ovarian
  GI50: 10.3 µM
  TGI: > 100 µM
NCI/ADR-RES ovarian
  GI50: 3.64 µM
  TGI: > 100 µM
OVCAR-8 ovarian
  GI50: 6.33 µM
  TGI: > 100 µM
NCI-H23 lung
  GI50: 12.2 µM
  TGI: > 100 µM
UACC-62 melanoma
  GI50: 6.53 µM
  TGI: > 100 µM
IGROV1 ovarian
  GI50: 8.85 µM
  TGI: > 100 µM
BT-549 breast
  GI50: 5.63 µM
  TGI: > 100 µM
786-0 renal
  GI50: 4.05 µM
  TGI: 51 µM
HS 578T breast
  GI50: 3.84 µM
  TGI: 86.8 µM
A498 renal
  GI50: 2.32 µM
  TGI: 9.19 µM
DU-145 prostate
  GI50: 6.09 µM
  TGI: > 100 µM
OVCAR-3 ovarian
  GI50: 3.43 µM
  TGI: 12.8 µM
K-562 leukemia
  GI50: 2.63 µM
  TGI: > 100 µM
HCC-2998 colon
  GI50: 3.84 µM
  TGI: 18.5 µM
SF-268 CNS
  GI50: 6.77 µM
  TGI: > 100 µM
SF-539 CNS
  GI50: 2.49 µM
  TGI: 7.22 µM
MCF7 breast
  GI50: 3.57 µM
  TGI: > 100 µM
SN12C renal
  GI50: 5.16 µM
  TGI: > 100 µM
RPMI-8226 leukemia
  GI50: 4.42 µM
  TGI: > 100 µM
CCRF-CEM leukemia
  GI50: 3.7 µM
  TGI: > 100 µM
NCI-H226 lung
  GI50: 5.53 µM
  TGI: > 100 µM
LOX IMVI melanoma
  GI50: 3.41 µM
  TGI: 39 µM
